Converted amounts (≈) assume the structure as drawn.
Columns and labels:
[1] = system: Mycobacterium tuberculosis; test: Antimycobacterial activity against Mycobacterium tuberculosis H37Rv infected in Balb/c mouse assessed as bacterial burden in lungs at 10 to 300 mg/kg administered daily through gavage starting on day 2 post infection for 8 consecutive days; format: functional, Lung
[2] = system: Mycobacterium tuberculosis; test: Antimycobacterial activity against Mycobacterium tuberculosis H37Rv incubated for 5 days in presence of 25% human serum by Bactiter-Glo assay; format: functional; details: 120 h
[3] = system: Mycobacterium tuberculosis; test: (§1) Antimycobacterial activity against Mycobacterium tuberculosis H37Rv infected in Balb/c mouse assessed as bacterial burden in lungs at 25 mg/kg, po administered daily through gavage starting on day 2 post infection for 4 days per week for 2 weeks as Vitamin-E/PEG200 formulation each 4 days dosing followed by 2 days compound washout measured on day 12 post infection (reference value: 8 log10CFU); format: functional, Lung
[4] = system: Mycobacterium tuberculosis; test: Antimycobacterial activity against GFP-tagged Mycobacterium tuberculosis H37Rv infected in mouse RAW264.7 cells incubated for 4 days by Mask blue/Hoechst/FITC staining based fluorescence microscopic analysis; format: functional; details: 96 h
[5] = Permeability in human Caco2 cells; details: caco-2
[6] = system: Mycobacterium tuberculosis; test: as §1, with “12.5” for “25”; format: functional, Lung
[7] = system: Mycobacterium tuberculosis; test: Antimycobacterial activity against Mycobacterium tuberculosis H37Rv infected in Balb/c mouse assessed as bacterial burden in lungs at 10 to 300 mg/kg administered daily through gavage for 4 days separated by 2 days drug wash out followed by second 4 days drug treatment; format: functional, Lung
[8] = system: Mycobacterium tuberculosis; test: Antimycobacterial activity against Mycobacterium tuberculosis H37Rv in 1000 bacteria inoculated agar plate; format: functional
[9] = system: Mycobacterium tuberculosis; test: as §1, with “200” for “25”; format: functional, Lung
[10] = system: Mycobacterium tuberculosis; test: Ratio of MIC80 for Mycobacterium tuberculosis H37Rv in presence of 25% human serum to MIC80 for Mycobacterium tuberculosis H37Rv; format: functional
[11] = Time at which plasma concentration stays above invitro MIC80 in presence of mouse serum in Balb/c mouse infected with Mycobacterium tuberculosis H37Rv at 100 mg/kg, po administered through gavage as 90%/10% PEG200/vitamin -E TPGS formulation; format: ADME, organism-based; details: in vivo
[12] = system: Mycobacterium tuberculosis; test: Antimycobacterial activity against Mycobacterium tuberculosis H37Rv incubated for 5 days in presence of 25% mouse serum by Bactiter-Glo assay; format: functional; details: 120 h
[13] = Time at which lung concentration stays above invitro MIC80 in presence of mouse serum in Balb/c mouse infected with Mycobacterium tuberculosis H37Rv at 100 mg/kg, po administered through gavage as 90%/10% PEG200/vitamin -E TPGS formulation; format: ADME, organism-based; details: in vivo
[14] = Ratio of drug level in Mycobacterium tuberculosis H37Rv infected Balb/c mouse lung to plasma at 100 mg/kg, po administered through gavage as 90%/10% PEG200/vitamin -E TPGS formulation; format: ADME, organism-based; details: lung and plasma
[15] = system: Mycobacterium tuberculosis; test: Antimycobacterial activity against Mycobacterium tuberculosis H37Rv infected in po dosed Balb/c mouse assessed as reduction in bacterial burden in lungs administered daily through gavage starting on day 2 post infection for 8 consecutive days; format: functional; details: Lung, 48 h, read-out: MED
[16] = Protein binding in Swiss mouse plasma at 1 to 10 uM after 4 hrs by LC-MS/MS analysis; format: ADME, cell-free; details: read-out: PPB (converted)
[17] = Solubility in 90%/10% PEG200/vitamin -E TPGS solution; format: physicochemical
[18] = Aqueous equilibrium solubility of compound in pH 7.4 solution at 20 degC; details: aqueous pH 7.4 solution
Cytochrome P450 3A4 [19] = molecular target: T1, Cytochrome P450 3A4 (Homo sapiens, UniProt P08684); test: Inhibition of CYP3A4 in human liver microsomes assessed as 1'-hydroxymidazolam metabolite formation using midazolam as substrate incubated for 10 mins by HPLC-MS method
[20] = Lipophilicity, log P of compound; details: octanol/water
[21] = system: Mycobacterium tuberculosis; test: as §1, with “50” for “25”; format: functional, Lung
[22] = system: Mycobacterium tuberculosis; test: Antimycobacterial activity against Mycobacterium tuberculosis H37Rv in 100000 bacteria inoculated agar plate; format: functional
[23] = Cytotoxicity against human HepG2 cells assessed as reduction in cell viability after 40 hrs by Celltiter-Glo assay; details: HepG2 cells
[24] = Half life in Balb/c mouse infected with Mycobacterium tuberculosis H37Rv at 100 mg/kg, po administered through gavage as 90%/10% PEG200/vitamin -E TPGS formulation; format: ADME, organism-based; details: in vivo
[25] = AUC in Balb/c mouse plasma infected with Mycobacterium tuberculosis H37Rv at 100 mg/kg, po administered through gavage as 90%/10% PEG200/vitamin -E TPGS formulation; format: ADME, organism-based
[26] = system: Mycobacterium tuberculosis; test: as §1, with “100” for “25”; format: functional, Lung
[27] = Oral bioavailability in Swiss mouse at 100 mg/kg administered as single dose through gavage as 90%/10% PEG200/vitamin -E TPGS formulation after 24 hrs; format: ADME, organism-based; details: in vivo
[28] = Aqueous equilibrium solubility of compound in pH 1 solution at 20 degC; details: aqueous pH 1 solution
Cytochrome P450 3A4 [29] = molecular target: T1, Cytochrome P450 3A4; test: Inhibition of CYP3A4 in human liver microsomes assessed as 6-beta-hydroxytestosterone metabolite formation using testosterone as substrate incubated for 30 mins by HPLC-MS method
[30] = system: Mycobacterium tuberculosis; test: Antimycobacterial activity against Mycobacterium tuberculosis H37Rv incubated for 5 days by Bactiter-Glo assay; format: functional; details: 120 h
[31] = Protein binding in human plasma at 1 to 10 uM after 4 hrs by LC-MS/MS analysis; format: ADME, cell-free; details: read-out: PPB (converted)

T1 sequence (P08684 whole entry): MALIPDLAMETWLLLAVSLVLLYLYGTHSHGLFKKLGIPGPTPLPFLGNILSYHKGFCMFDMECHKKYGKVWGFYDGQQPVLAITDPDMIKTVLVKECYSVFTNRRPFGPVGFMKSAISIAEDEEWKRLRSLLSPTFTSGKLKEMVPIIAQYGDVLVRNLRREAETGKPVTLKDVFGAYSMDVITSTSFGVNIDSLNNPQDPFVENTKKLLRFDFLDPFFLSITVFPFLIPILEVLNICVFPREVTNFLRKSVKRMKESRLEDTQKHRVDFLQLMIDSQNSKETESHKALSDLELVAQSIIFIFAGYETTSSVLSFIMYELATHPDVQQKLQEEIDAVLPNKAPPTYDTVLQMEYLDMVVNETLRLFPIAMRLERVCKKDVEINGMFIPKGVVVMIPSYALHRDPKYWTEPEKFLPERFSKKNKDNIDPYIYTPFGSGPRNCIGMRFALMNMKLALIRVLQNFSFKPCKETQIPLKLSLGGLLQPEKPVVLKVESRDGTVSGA

Cn1c(NCCc2ccc(-c3ccc(F)cc3)cc2)nc2cc(Cl)ccc2c1=O showed an Activity [1] of 0.78 log10CFU, an MIC80 [2] of 0.025 µM and an Activity [3] of 7.6 log10CFU. The MIC80 [4] was 0.06 µM (≈ 0.0245 µg/mL), the permeability [5] was “Permeable” and the Activity [6] was 7.7 log10CFU. For the same compound, the Activity [7] was 1.5 log10CFU, the MIC [8] was 0.016 µg/mL (≈ 0.0392 µM) and the Activity [9] was 7.6 log10CFU. It also gave a Ratio [10] of 8, a Time [11] of over 24 h and an MIC80 [12] of 0.034 µM. The Time [13] was over 24 h, the Kp [14] was 14 and the minimal effective dose [15] was 300 mg/kg. It also gave a fraction unbound at 4 h [16] of 0.001, a solubility [17] of 20 mg/mL (≈ 49000 µM) and a solubility thermodynamic [18] of under 0.001 mg/mL. It also gave an IC50 (Cytochrome P450 3A4 [19]) of over 30 µM, a logP [20] of 5.28 and an Activity [21] of 7.4 log10CFU. For the same compound, the MIC [22] was 2 µg/mL (≈ 4.9 µM), the IC50 at 40 h [23] was 22 µM and the half-life [24] was 8 h. For the same compound, the AUC [25] was 76000 ng·h/mL, the Activity [26] was 7.6 log10CFU and the bioavailability [27] was 73%. The solubility thermodynamic [28] was under 0.001 mg/mL, the IC50 (Cytochrome P450 3A4 [29]) was 18 µM and the MIC80 [30] was 0.003 µM (≈ 0.00122 µg/mL). It also gave a fraction unbound at 4 h [31] of 0.001.

From ChEMBL document CHEMBL3853353, “Identification and optimization of a new series of anti-tubercular quinazolinones” (Bioorg Med Chem Lett, 2016)
